Data published in publication PMC10681007, “Targeted Degradation of XIAP is Sufficient and Specific to Induce Apoptosis in MYCN-overexpressing High-risk Neuroblastoma” (Cancer Research Communications, 2023).

What was measured:
Format in all cases: cell-based, Human
[1] = system: THLE3 (liver origin); experiment: RealTime-Glo MT cell viability assay, noncancerous normal cells; settings: Homo sapiens
Description: (§1) Cell viability was measured in real time using RealTime-Glo MT Cell Viability Assay as according to manufacturer's instructions from Promega. Cells were seeded at 1 × 10^4 cells per well and treated with a range of doses of indicated antagonists, followed by continuous bioluminescence reading every 24 hours for 3 days using luminescent plate reader, Varioskan (SkanIT software). IC50 was determined using GraphPad Prism software.
(§2) To determine their efficacy in neuroblastoma, a panel of neuroblastoma cell lines including neuroblastoma patient-derived cell lines and noncancerous normal tissue-derived cell lines were treated with increasing doses of each antagonist (0–100 µmol/L), followed by real-time measurement of cell viability every 24 for 72 hours.
(§3) To evaluate this, noncancerous normal tissue-derived cell lines THLE3 and HS5 were utilized to evaluate toxicity and tolerability.

[2] = system: HS5 (bone marrow origin); experiment: as above; settings: Homo sapiens
Description: as §1, §2, §3

[3] = system: neuroblastoma cells across the panel of cell lines; experiment: Cell viability, IC50 range across the panel; settings: Homo sapiens, Neuroblastoma cell; range over cell lines, doses 0–100 µmol/L, viability every 24 for 72 hours; read-out: IC50 against neuroblastoma cells across the panel of cell lines
Description: as §1, with “([…]” for “(SkanIT”, “software. To determine their efficacy in neuroblastoma, a panel of neuroblastoma cell lines including neuroblastoma patient-derived cell lines and noncancerous normal tissue-derived cell lines were treated with increasing doses of each antagonist (0-100 μmol/L), followed by real-time measurement of cell viability every 24 for 72 hours. […] Supplementary Table S2; Fig. 2A). […] Fig. 2A).” for “software.”

[4] = system: THLE3 and HS5; experiment: Toxicity and tolerability in noncancerous normal tissue-derived cell lines; settings: THLE3 and HS5 versus neuroblastoma cells
Description: as §1
To evaluate this, noncancerous normal tissue-derived cell lines THLE3 and HS5 were utilized to evaluate toxicity and tolerability. […] On the basis of their overall potency and specificity toward neuroblastoma cells over noncancerous normal cells, A4, B3, and BV6 were selected as the more efficacious antagonists to be studied further in subsequent experiments (Fig. 2A).

[5] = system: IMR-32; experiment: RealTime-Glo MT cell viability assay; settings: Homo sapiens
Description: as §1, §2

[6] = system: SK-N-SH; experiment: RealTime-Glo MT cell viability assay; settings: Homo sapiens
Description: as §1, §2

[7] = system: NBL-07-0317 patient-derived neuroblastoma cells; experiment: RealTime-Glo MT cell viability assay; settings: Homo sapiens, Neuroblastoma cell
Description: as §1, §2

[8] = system: NLF; experiment: RealTime-Glo MT cell viability assay; settings: Homo sapiens
Description: as §1, §2

[9] = system: NBL01-1116 patient-derived neuroblastoma cells; experiment: RealTime-Glo MT cell viability assay; settings: Homo sapiens, Neuroblastoma cell
Description: as §1, §2

[10] = system: NBL16-0118 patient-derived neuroblastoma cells; experiment: RealTime-Glo MT cell viability assay; settings: Homo sapiens, Neuroblastoma cell
Description: as §1, §2

[11] = system: NB1; experiment: RealTime-Glo MT cell viability assay; settings: Homo sapiens
Description: as §1, §2

[12] = system: SK-N-AS; experiment: RealTime-Glo MT cell viability assay; settings: Homo sapiens
Description: as §1, §2

[13] = system: CHP212; experiment: RealTime-Glo MT cell viability assay; settings: Homo sapiens, CHP-212
Description: as §1, §2

[14] = system: KELLY; experiment: RealTime-Glo MT cell viability assay; settings: Homo sapiens
Description: as §1, §2

[15] = system: NBL27-0218A patient-derived neuroblastoma cells; experiment: RealTime-Glo MT cell viability assay; settings: Homo sapiens, Neuroblastoma cell
Description: as §1, §2

[16] = system: BE(2)-C; experiment: RealTime-Glo MT cell viability assay; settings: Homo sapiens
Description: as §1, §2

## CN[C@@H](C)C(=O)N[C@H](C(=O)N1CCC[C@H]1C(=O)Nc1sc(-c2ncco2)nc1-c1ccccc1)C1CCCCC1 [CUDC-427]
[1]; THLE3, 24 hours
  IC50: 40.2 µM
[1]; THLE3, 48 hours
  IC50: 28.8 µM
[1]; THLE3, 72 hours
  IC50: 29.5 µM
[2]; HS5, 24 hours
  IC50: 29.9 µM
[2]; HS5, 48 hours
  IC50: 26.5 µM
[2]; HS5, 72 hours
  IC50: 23.8 µM
[3]
  IC50: 20 to 60 µM
[4]
  toxicity to noncancerous cells: more toxic toward noncancerous cells than neuroblastoma cells
[5]; IMR-32, 24 hours
  IC50: 59 µM
[5]; IMR-32, 48 hours
  IC50: 46.5 µM
[5]; IMR-32, 72 hours
  IC50: 40.6 µM
[6]; 24 hours
  IC50: 54.1 µM
[6]; 48 hours
  IC50: 40 µM
[6]; 72 hours
  IC50: 33.5 µM
[7]; NBL-07-0317, 24 hours
  IC50: 33.5 µM
[7]; NBL-07-0317, 48 hours
  IC50: 33 µM
[7]; NBL-07-0317, 72 hours
  IC50: 32 µM
[8]; 24 hours
  IC50: 45 µM
[8]; 48 hours
  IC50: 38.6 µM
[8]; 72 hours
  IC50: 30.2 µM
[9]; NBL01-1116, 24 hours
  IC50: 40 µM
[9]; NBL01-1116, 48 hours
  IC50: 38 µM
[9]; NBL01-1116, 72 hours
  IC50: 38 µM
[10]; NBL16-0118, 24 hours
  IC50: 35 µM
[10]; NBL16-0118, 48 hours
  IC50: 32 µM
[10]; NBL16-0118, 72 hours
  IC50: 30 µM
[11]; NB1, 24 hours
  IC50: 42 µM
[11]; NB1, 48 hours
  IC50: 38.1 µM
[11]; NB1, 72 hours
  IC50: 36.9 µM
[12]; 24 hours
  IC50: 33.2 µM
[12]; 48 hours
  IC50: 26.9 µM
[12]; 72 hours
  IC50: 22.3 µM
[13]; CHP212, 24 hours
  IC50: 57.6 µM
[13]; CHP212, 48 hours
  IC50: 50.1 µM
[13]; CHP212, 72 hours
  IC50: 50 µM
[14]; 24 hours
  IC50: 32.5 µM
[14]; 48 hours
  IC50: 29.5 µM
[14]; 72 hours
  IC50: 26 µM
[15]; 24 hours
  IC50: 32.8 µM
[15]; 48 hours
  IC50: 30.4 µM
[15]; 72 hours
  IC50: 28.4 µM
[16]; 24 hours
  IC50: 64.9 µM
[16]; 48 hours
  IC50: 60.9 µM
[16]; 72 hours
  IC50: 55.6 µM

## CN[C@@H](C)C(=O)N[C@H]1CN(C(=O)CC(C)C)CC[C@H]2CC[C@@H](C(=O)NC(c3ccccc3)c3ccccc3)N2C1=O [Debio 1143]
[1]; THLE3, 24 hours
  IC50: > 100 µM
[1]; THLE3, 48 hours
  IC50: 73 µM
[1]; THLE3, 72 hours
  IC50: 80 µM
[2]; HS5, 24 hours
  IC50: > 100 µM
[2]; HS5, 48 hours
  IC50: 90 µM
[2]; HS5, 72 hours
  IC50: > 100 µM
[4]
  toxicity to noncancerous cells: more toxic toward noncancerous cells than neuroblastoma cells
[5]; IMR-32, 24 hours
  IC50: > 100 µM
[5]; IMR-32, 48 hours
  IC50: > 100 µM
[5]; IMR-32, 72 hours
  IC50: 64.5 µM
[6]; 24 hours
  IC50: > 100 µM
[6]; 48 hours
  IC50: > 100 µM
[6]; 72 hours
  IC50: 35.5 µM
[7]; NBL-07-0317, 24 hours
  IC50: > 100 µM
[7]; NBL-07-0317, 48 hours
  IC50: 93 µM
[7]; NBL-07-0317, 72 hours
  IC50: > 100 µM
[8]; 24 hours
  IC50: > 100 µM
[8]; 48 hours
  IC50: 78.5 µM
[8]; 72 hours
  IC50: > 100 µM
[9]; NBL01-1116, 24 hours
  IC50: > 100 µM
[9]; NBL01-1116, 48 hours
  IC50: > 100 µM
[9]; NBL01-1116, 72 hours
  IC50: > 100 µM
[10]; NBL16-0118, 24 hours
  IC50: > 100 µM
[10]; NBL16-0118, 48 hours
  IC50: > 100 µM
[10]; NBL16-0118, 72 hours
  IC50: > 100 µM
[11]; NB1, 24 hours
  IC50: > 100 µM
[11]; NB1, 48 hours
  IC50: > 100 µM
[11]; NB1, 72 hours
  IC50: 64.5 µM
[12]; 24 hours
  IC50: 68.5 µM
[12]; 48 hours
  IC50: 50.5 µM
[12]; 72 hours
  IC50: 85 µM
[13]; CHP212, 24 hours
  IC50: > 100 µM
[13]; CHP212, 48 hours
  IC50: > 100 µM
[13]; CHP212, 72 hours
  IC50: > 100 µM
[14]; 24 hours
  IC50: 91 µM
[14]; 48 hours
  IC50: 73.5 µM
[14]; 72 hours
  IC50: > 100 µM
[15]; 24 hours
  IC50: > 100 µM
[15]; 48 hours
  IC50: > 100 µM
[15]; 72 hours
  IC50: 50 µM
[16]; 24 hours
  IC50: > 100 µM
[16]; 48 hours
  IC50: > 100 µM
[16]; 72 hours
  IC50: > 100 µM
